# Like-named read-outs stand apart in the source and are kept apart here.
# Experiments:
# [1] = target: T1, Leishmania donovani DNA topoisomerase IB enzyme (LdTopIB) (Leishmania donovani, UniProt A0A3Q8IHS4+Q8WQM6); settings: earlier work of the group; cited from earlier work
# [2] = tested on: LdTopIB CPT^R (LdTopIL^1−561/S175end); test: Inhibition of CPT-resistant doubly truncated LdTopIB; format: biochemical, Leishmania donovani; settings: 100 µM, 4 min at 25 °C, judged by supercoiled DNA band
# Experimental: Figure 4 Methoxylated fatty acids inhibit LdTopIB by a CPT-independent mechanism. […] Samples were incubated for 4 min at 25 °C, stopped with 1% SDS and digested for one extra hour at 37 °C in the presence of 1 mg/mL proteinase K. DNA was extracted with one volume of phenol-chloroform and samples were run on a 1% agarose gel containing ethidium bromide to a final concentration of 40 μg/mL in order to separate supercoiled and relaxed DNA. The nicked band corresponds to the stabilized cleavage complexes. The results are representative of three independent trials.
# [3] = tested on: Murine Macrophages BALB/c; test: Toxicity towards murine macrophages; format: cell-based; settings: Mus musculus, Macrophage
# Excerpt: Murine macrophages were chosen as reference for this study since Leishmania spp. normally infects macrophages and in macrophages is where Leishmania promastigotes are transformed into Leishmania amastigotes. […] The experimental procedures employed to assess the toxicity of acids 1 and 2 towards L. infantum and L. donovani are the same as the ones previously described. CPT was used as the control drug.
# [4] = target: T1, Leishmania donovani DNA topoisomerase IB enzyme (LdTopIB); test: Inhibition of the relaxation activity of recombinant LdTopIB (plasmid DNA relaxation assay); format: biochemical; settings: 30 min at 37 °C, 1.56–100 µM
# Experimental: (§1) One unit of recombinant LdTopIB was assayed in a plasmid DNA relaxation assay for 30 min at 37 °C in the presence of 1.56–100 µM of either acids 1 or 2. Reaction products were resolved in agarose gel and subsequently visualized by ethidium bromide staining. The relative position of the negatively supercoiled DNA substrate is indicated by Sc, R is the relaxed DNA, whereas the ladder of relaxed DNA topoisomer bands is shown in between. Reactions were stopped with a mixture of 1% SDS and 6.1 µg of proteinase K. Lane 1 contains 0.5 µg of pSK plasmid DNA and lane 2, indicated by a 0, is 10% DMSO.
# (§2) The LdTopIB and hTopIB inhibitory bioassays were performed as previously described. A brief description of the experimental procedure can be found as the header of Figure 1 and Figure 3.
# [5] = tested on: L. infantum promastigotes; test: Toxicity towards L. infantum promastigotes; format: cell-based, Leishmania infantum
# Excerpt: (§3) The experimental procedures employed to assess the toxicity of acids 1 and 2 towards L. infantum and L. donovani are the same as the ones previously described. CPT was used as the control drug.
# [6] = target: T2, human topoisomerase IB enzyme (hTopIB) (Homo sapiens, UniProt P11387); test: Inhibition of the relaxation activity of hTopIB (plasmid DNA relaxation assay); format: biochemical; settings: 30 min at 37 °C, 1–100 µM
# T2 sequence (P11387 1-765): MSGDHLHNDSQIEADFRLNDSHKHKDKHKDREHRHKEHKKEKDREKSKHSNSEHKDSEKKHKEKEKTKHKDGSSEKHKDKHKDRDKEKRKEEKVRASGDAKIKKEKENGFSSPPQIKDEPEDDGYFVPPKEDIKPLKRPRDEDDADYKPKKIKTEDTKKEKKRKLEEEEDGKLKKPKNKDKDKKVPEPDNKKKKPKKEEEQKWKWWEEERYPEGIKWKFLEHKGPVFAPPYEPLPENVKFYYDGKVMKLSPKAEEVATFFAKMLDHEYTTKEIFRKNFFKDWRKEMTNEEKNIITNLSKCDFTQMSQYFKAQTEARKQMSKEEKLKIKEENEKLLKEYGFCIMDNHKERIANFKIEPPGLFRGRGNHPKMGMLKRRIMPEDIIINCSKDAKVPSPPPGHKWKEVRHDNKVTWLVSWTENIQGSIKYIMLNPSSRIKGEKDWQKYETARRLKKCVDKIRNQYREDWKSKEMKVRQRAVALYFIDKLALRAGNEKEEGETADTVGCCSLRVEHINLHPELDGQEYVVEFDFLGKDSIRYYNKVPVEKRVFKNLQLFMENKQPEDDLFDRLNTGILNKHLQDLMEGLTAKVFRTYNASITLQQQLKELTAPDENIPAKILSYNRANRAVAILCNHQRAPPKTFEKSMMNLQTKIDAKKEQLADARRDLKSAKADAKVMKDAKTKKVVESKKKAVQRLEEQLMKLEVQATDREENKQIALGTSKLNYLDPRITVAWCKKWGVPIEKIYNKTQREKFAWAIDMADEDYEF
# Experimental: as §1, with “hTopIB” for “of recombinant LdTopIB”, “1–100” for “1.56–100”
# as §2
# [7] = tested on: L. donovani promastigotes; test: Toxicity towards L. donovani promastigotes; format: cell-based; settings: Leishmania donovani
# Excerpt: as §3
# [8] = relaxation activity, read-out: LdTopIB EC50
# T1 sequence (A0A3Q8IHS4 entry or part of it): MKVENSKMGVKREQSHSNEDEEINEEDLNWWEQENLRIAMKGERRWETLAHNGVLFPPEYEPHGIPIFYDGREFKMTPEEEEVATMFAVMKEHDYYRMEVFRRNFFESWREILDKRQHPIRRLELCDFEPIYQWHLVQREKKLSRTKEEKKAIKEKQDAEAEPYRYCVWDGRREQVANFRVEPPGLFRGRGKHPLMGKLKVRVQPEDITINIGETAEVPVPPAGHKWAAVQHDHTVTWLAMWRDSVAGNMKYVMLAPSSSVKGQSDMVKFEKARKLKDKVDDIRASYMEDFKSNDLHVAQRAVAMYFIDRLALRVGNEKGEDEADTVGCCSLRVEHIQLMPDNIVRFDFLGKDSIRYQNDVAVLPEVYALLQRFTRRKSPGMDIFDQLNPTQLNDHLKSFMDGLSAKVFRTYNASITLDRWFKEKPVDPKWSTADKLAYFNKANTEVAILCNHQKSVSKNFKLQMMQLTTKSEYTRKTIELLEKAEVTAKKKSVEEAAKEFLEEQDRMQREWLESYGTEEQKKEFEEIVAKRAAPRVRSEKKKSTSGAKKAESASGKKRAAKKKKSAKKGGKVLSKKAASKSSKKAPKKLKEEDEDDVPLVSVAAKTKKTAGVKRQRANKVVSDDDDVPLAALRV
# T1 sequence (Q8WQM6 entry or part of it): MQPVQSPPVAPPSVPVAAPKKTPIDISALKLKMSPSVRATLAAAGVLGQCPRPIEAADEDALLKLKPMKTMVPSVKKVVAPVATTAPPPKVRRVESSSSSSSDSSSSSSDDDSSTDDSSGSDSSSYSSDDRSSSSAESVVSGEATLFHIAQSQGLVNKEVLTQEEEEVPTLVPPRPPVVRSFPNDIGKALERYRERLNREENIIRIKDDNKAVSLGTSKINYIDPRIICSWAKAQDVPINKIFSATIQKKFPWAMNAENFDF
Compound,EC50 [1],Inhibition of LdTopIB CPT^R [2],IC50 [3],"EC50 ([4]; LdTopIB EC50, relaxation activity)",EC50 ([5]; Leishmania infantum),"EC50 [4, 8]",EC50 [5],EC50 [6],"IC50 ([7]; footnote a, in the column L. infantum EC50, read-out: IC50 against L. donovani promastigotes)",EC50 ([7]; promastigotes)
CCCCCCCCCCC#CCCCC(OC)C(=O)O (racemic) [(±)-2-OMe-6-heptadecynoic acid],17 ± 1 µM,–,–,–,–,–,–,–,–,–
"CC[C@@]1(O)C(=O)OCc2c1cc1n(c2=O)Cc2cc3ccccc3nc2-1 [CPT, Camptothecin, reference compound]",–,not able to inhibit,0.6 ± 0.1 µM,0.7 ± 0.1 µM,1.1 ± 0.1 µM,–,–,–,–,–
CCCCCCCCCC/C=C\CCCC(OC)C(=O)O (racemic) [(±)-2-methoxy-6Z-heptadecenoic acid],41 ± 6 µM,–,–,–,–,–,–,–,–,–
"CCCCCCCCCC/C=C\CC/C=C\CCC(OC)C(=O)O (racemic) [compound 1, (5Z,9Z)-(±)-2-methoxy-5,9-eicosadienoic acid]",–,completely inhibit,110 ± 10 µM,–,240 to 260 µM,31 ± 2 µM,260 ± 20 µM,> 100 µM,–,–
"CCCCCCCCCCC#CCCC#CCCC(OC)C(=O)O (racemic) [compound 2, (±)-2-methoxy-5,9-eicosadiynoic acid]",–,completely inhibit,90 ± 20 µM,–,240 to 260 µM,22 ± 1 µM,240 ± 10 µM,> 100 µM,–,–
"CCCCCCCCCCCCCC#CCCCC(OC)C(=O)O (racemic) [compound 12, (±)-2-methoxy-6-icosynoic acid]",–,–,> 100 µM,–,–,53 ± 3 µM,–,> 100 µM,100 ± 10 µM,100 µM

# Source: PMC3826128 (Marine Drugs, 2013)
